In one experiment the target is T1, SMARCA4 (Homo sapiens, UniProt P51532).
T1 construct: SMARCA4-HiBiT knock-in Hela monoclonal cell (CS3023226) were purchased from Promega; host or cells: HeLa (CRISPR HiBiT knock-in monoclonal line, heterozygous)
The experiment can be described thus: SMARCA4 HiBiT degradation assay in HeLa cells. The class given is cell-based. Conditions: 18 hours; for Dmax: HeLa. In short, it runs like this:
(§1)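 Degradation measured as HiBiT luminescence (Nano-Glo lytic reagent) after 18 h compound exposure at 37° C. Cells were HeLa clones carrying heterozygous HiBiT tags on SMARCA2 or SMARCA4, 2500 per well; compounds at 3-fold serial dilution from 10 μM.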

Another experiment deals with T2, SMARCA2 (Homo sapiens, UniProt P51531).
T2 construct: SMARCA2-HiBiT knock-in Hela monoclonal cell (CS302366); host or cells: HeLa (CRISPR HiBiT knock-in monoclonal line, heterozygous)
T2 sequence (P51531 whole entry): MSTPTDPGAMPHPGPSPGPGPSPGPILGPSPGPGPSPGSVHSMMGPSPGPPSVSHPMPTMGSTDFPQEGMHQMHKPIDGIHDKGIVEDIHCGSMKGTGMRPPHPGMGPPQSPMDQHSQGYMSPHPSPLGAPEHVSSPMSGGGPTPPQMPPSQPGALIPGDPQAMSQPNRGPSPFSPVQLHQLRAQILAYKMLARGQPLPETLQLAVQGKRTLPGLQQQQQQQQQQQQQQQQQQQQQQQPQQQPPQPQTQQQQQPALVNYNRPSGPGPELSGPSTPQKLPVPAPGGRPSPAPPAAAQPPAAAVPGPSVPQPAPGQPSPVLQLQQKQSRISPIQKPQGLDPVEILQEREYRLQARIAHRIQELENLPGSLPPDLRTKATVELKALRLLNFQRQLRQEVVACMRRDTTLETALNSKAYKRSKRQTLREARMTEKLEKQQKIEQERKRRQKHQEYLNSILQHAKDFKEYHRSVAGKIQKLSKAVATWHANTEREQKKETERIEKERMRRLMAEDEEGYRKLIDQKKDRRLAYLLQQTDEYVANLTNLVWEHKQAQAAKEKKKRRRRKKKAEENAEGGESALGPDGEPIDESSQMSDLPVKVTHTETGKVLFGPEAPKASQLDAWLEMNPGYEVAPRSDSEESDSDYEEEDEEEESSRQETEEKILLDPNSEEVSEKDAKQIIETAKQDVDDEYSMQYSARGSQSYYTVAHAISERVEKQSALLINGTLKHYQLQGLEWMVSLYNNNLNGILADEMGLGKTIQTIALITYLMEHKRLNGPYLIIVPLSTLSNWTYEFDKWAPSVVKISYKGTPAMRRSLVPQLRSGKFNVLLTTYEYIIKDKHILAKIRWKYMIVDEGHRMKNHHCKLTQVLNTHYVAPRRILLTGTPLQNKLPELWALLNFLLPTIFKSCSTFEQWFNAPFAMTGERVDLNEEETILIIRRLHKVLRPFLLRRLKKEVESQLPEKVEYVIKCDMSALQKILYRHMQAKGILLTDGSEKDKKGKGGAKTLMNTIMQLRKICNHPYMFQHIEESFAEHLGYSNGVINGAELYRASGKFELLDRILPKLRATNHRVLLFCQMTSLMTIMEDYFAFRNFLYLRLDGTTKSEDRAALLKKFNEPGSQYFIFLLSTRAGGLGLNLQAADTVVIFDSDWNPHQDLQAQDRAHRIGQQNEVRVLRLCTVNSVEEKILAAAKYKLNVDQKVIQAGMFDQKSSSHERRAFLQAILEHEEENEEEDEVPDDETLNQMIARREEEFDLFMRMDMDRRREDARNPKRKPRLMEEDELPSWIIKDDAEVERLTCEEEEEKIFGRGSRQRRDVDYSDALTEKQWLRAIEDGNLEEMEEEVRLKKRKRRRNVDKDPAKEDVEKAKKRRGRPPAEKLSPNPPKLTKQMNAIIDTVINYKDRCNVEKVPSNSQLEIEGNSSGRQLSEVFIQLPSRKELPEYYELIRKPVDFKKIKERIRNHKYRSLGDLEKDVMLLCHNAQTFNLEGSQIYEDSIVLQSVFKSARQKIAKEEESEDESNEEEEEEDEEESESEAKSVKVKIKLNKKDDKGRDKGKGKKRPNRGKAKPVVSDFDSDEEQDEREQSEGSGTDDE
Put plainly: SMARCA2 HiBiT degradation assay in HeLa cells. The class given is cell-based. To be noted: 18 hours; for DC50: read-out: SMARCA2 IC50; for Dmax: HeLa. The method, boiled down: as §1

T1 sequence (P51532 whole entry): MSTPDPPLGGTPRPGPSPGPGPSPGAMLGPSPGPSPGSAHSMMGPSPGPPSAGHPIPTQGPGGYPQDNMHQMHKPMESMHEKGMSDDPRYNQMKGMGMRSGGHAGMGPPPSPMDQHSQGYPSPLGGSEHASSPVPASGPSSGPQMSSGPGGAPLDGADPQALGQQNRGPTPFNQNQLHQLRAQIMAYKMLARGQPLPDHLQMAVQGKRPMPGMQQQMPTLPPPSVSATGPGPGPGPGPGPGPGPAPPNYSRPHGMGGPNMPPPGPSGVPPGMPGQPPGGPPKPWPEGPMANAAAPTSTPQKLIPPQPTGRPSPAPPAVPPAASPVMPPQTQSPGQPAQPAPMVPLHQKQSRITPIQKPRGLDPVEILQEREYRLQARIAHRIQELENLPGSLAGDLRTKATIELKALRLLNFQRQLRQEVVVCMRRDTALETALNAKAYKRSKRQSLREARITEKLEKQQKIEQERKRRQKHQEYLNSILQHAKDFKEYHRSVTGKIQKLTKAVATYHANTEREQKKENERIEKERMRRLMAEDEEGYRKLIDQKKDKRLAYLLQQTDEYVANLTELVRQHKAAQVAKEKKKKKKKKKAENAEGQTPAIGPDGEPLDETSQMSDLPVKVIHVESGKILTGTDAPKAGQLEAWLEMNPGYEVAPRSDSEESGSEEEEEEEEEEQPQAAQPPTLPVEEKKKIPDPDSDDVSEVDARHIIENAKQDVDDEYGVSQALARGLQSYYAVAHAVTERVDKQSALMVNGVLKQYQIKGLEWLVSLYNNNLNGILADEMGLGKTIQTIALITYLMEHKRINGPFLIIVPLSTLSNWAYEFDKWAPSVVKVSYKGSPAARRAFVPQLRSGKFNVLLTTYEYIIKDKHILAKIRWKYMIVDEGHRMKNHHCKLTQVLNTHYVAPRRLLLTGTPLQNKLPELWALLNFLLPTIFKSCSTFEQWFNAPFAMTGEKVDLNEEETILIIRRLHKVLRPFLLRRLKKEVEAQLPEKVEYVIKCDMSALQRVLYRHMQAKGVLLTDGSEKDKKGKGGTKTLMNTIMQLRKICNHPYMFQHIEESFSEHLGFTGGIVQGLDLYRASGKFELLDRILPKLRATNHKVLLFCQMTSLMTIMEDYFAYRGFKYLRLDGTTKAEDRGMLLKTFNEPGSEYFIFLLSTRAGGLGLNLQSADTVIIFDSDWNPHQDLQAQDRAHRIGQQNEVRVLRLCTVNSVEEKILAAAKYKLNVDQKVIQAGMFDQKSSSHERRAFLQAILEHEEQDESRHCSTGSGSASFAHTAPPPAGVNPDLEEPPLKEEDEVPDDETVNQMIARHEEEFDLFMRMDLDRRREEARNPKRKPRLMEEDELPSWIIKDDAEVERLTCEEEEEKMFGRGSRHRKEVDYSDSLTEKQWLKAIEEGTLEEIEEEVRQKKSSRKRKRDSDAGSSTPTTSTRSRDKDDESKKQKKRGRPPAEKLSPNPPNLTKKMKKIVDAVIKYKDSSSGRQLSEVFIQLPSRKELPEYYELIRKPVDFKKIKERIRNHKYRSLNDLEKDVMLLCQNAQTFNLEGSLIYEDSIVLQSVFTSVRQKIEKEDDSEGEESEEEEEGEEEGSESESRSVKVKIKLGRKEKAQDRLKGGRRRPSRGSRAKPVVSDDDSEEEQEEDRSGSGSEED

On SMARCA4, `O=C1CCC(N2Cc3ccc(N4CCC(CN5CCC(F)(C(=O)N6CCN7c8cc(-c9cc(F)cc(F)c9O)nnc8NC[C@H]7C6)CC5)CC4)cc3C2=O)C(=O)N1` (stereo partly drawn) [Example 55, 3-(6-(4-((4-((S)-2-(3,5-difluoro-2-hydroxyphenyl)-6,6a,7,8,9,10-hexahydro-5H-pyrazino[1′,2′:4,5]pyrazino[2,3-c]pyridazine-8-carbonyl)-4-fluoropiperidin-1-yl)methyl)piperidin-1-yl)-1-oxoisoindolin-2-yl)piperidine-2,6-dione] showed a DC50 of less than 0.1 µM and a Dmax of less than 50%. Besides, on SMARCA2, the DC50 is less than 0.1 µM and the Dmax lay within 50 to 75%.
Regarding `CCC12CNc3nnc(-c4cccc(F)c4O)cc3N1CCN(C(=O)N1[C@H](C)CN(CC3CCN(c4ccc5c(c4)C(=O)N(C4CCC(=O)NC4=O)C5)CC3)C[C@@H]1C)C2` (single isomer, unassigned) [Example 62], at SMARCA4, the DC50 was less than 0.1 µM and the “SMARCA4 DMax %” value is recorded as “A (A=Dmax>75%)”. Besides, at SMARCA2, the “SMARCA2 DMax %” value is listed as “A (A=Dmax>75%)” and the DC50 was less than 0.1 µM.
Take `C[C@@H]1CN(CC2CCN(c3ccc4c(c3)C(=O)N(C3CCC(=O)NC3=O)C4)CC2)[C@@H](C)CN1C(=O)N1CCN2c3cc(-c4cccc(F)c4O)nnc3NCC2(C)C1` (single isomer, unassigned) [Example 91]: at SMARCA4, the DC50 is 0.1 to 1 µM and the Dmax is less than 50%. For the same compound, on SMARCA2, the DC50 was less than 0.1 µM and the Dmax is more than 75%.
On SMARCA4, `C[C@@H]1CN(CC2CCN(c3ccc4c(c3)C(=O)N(C3CCC(=O)NC3=O)C4)CC2)C[C@H](C)N1C(=O)N1CCN2c3cc(-c4cccc(F)c4O)nnc3NC[C@@]2(C(F)F)C1` (stereo partly drawn) [Example 69, 3-(6-(4-(((3R,5S)-4-((S)-6a-(difluoromethyl)-2-(3-fluoro-2-hydroxyphenyl)-6,6a,7,8,9,10-hexahydro-5H-pyrazino[1′,2′:4,5]pyrazino[2,3-c]pyridazine-8-carbonyl)-3,5-dimethylpiperazin-1-yl)methyl)piperidin-1-yl)-1-oxoisoindolin-2-yl)piperidine-2,6-dione] yielded a DC50 of more than 1 µM and a Dmax of less than 50%. In addition, at SMARCA2, the DC50 was less than 0.1 µM and the Dmax is more than 75%.
For the compound `C[C@@H]1C[C@H](CN2CCN(c3ccc4c(c3)C(=O)N([C@H]3CCC(=O)NC3=O)C4)CC2)C[C@H](C)N1C(=O)N1CCN2c3cc(-c4cccc(F)c4O)nnc3NCC2(C(F)(F)F)C1` (single isomer, unassigned) [Example 99], at SMARCA4, the DC50 is less than 0.1 µM and the “SMARCA4 DMax %” value is reported as “B (B=50%<Dmax≤75%)”. Moreover, at SMARCA2, the “SMARCA2 DMax %” value is “A (A=Dmax>75%)” and the DC50 is less than 0.1 µM.
For `CC1(C)CN(CC2CCN(c3ccc4c(c3)C(=O)N(C3CCC(=O)NC3=O)C4)CC2)CCN1C(=O)N1CCN2c3cc(-c4cccc(F)c4O)nnc3NCC2(C)C1` (single isomer, unassigned) [Example 10, 3-(6-(4-((4-(2-(3-fluoro-2-hydroxyphenyl)-6a-methyl-6,6a,7,8,9,10-hexahydro-5H-pyrazino[1′,2′:4,5]pyrazino[2,3-c]pyridazine-8-carbonyl)-3,3-dimethylpiperazin-1-yl)methyl)piperidin-1-yl)-1-oxoisoindolin-2-yl)piperidine-2,6-dione], at SMARCA4, the DC50 is less than 0.1 µM and the “SMARCA4 DMax %” value is listed as “C (C=Dmax<50%)”. Also, on SMARCA2, the “SMARCA2 DMax %” value is “A (A=Dmax>75%)” and the DC50 was less than 0.1 µM.
For `CC12CNc3nnc(-c4cccc(F)c4O)cc3N1CCN(C[C@H]1CC[C@H](CN3CCN(c4ccc5c(c4)C(=O)N([C@H]4CCC(=O)NC4=O)C5)CC3)CC1)C2` (single isomer, unassigned) [Example 118], the DC50 on SMARCA4 and on SMARCA2 was less than 0.1 µM throughout.
Take `CCC12CNc3nnc(-c4cccc(Cl)c4O)cc3N1CCN(C(=O)N1CCN(CC3CCN(c4ccc5c(c4)C(=O)N([C@H]4CCC(=O)NC4=O)C5)CC3)CC1(C)C)C2` (single isomer, unassigned) [Example 76]: the DC50 at SMARCA4 and at SMARCA2 was less than 0.1 µM each time. In addition, the Dmax on SMARCA4 was 50 to 75%; at SMARCA2, more than 75%.
As for `C[C@@H]1CN(CC2CCN(c3ccc4c(c3)C(=O)N([C@@H]3CCC(=O)NC3=O)C4)CC2)C[C@H](C)N1C(=O)N1CCN2c3cc(-c4cc(F)cc(F)c4O)nnc3NC[C@H]2C1` [Example 16, (R)-3-(6-(4-(((3S,5R)-4-((S)-2-(3,5-difluoro-2-hydroxyphenyl)-6,6a,7,8,9,10-hexahydro-5H-pyrazino[1′,2′:4,5]pyrazino[2,3-c]pyridazine-8-carbonyl)-3,5-dimethylpiperazin-1-yl)methyl)piperidin-1-yl)-1-oxoisoindolin-2-yl)piperidine-2,6-dione], at SMARCA4, the DC50 is less than 0.1 µM and the Dmax is less than 50%. On SMARCA2, the DC50 is less than 0.1 µM and the Dmax was more than 75%.
For the compound `CCC12CNc3nnc(-c4cc(F)cc(F)c4O)cc3N1CCN(C(=O)N1[C@H](C)CN(CC3CCN(c4ccc5c(c4)C(=O)N(C4CCC(=O)NC4=O)C5)CC3)C[C@@H]1C)C2` (single isomer, unassigned) [Example 85], the DC50 on SMARCA4 and on SMARCA2 was less than 0.1 µM each time.
In the case of `C[C@H]1CN2c3cc(-c4cc(F)cc(F)c4O)nnc3NC[C@H]2CN1C(=O)N1CCN(CC2CCN(c3ccc4c(c3)C(=O)N(C3CCC(=O)NC3=O)C4)CC2)CC1(C)C` (stereo partly drawn) [Example 25, 3-(6-(4-((4-((6aS,9S)-2-(3,5-difluoro-2-hydroxyphenyl)-9-methyl-6,6a,7,8,9,10-hexahydro-5H-pyrazino[1′,2′:4,5]pyrazino[2,3-c]pyridazine-8-carbonyl)-3,3-dimethylpiperazin-1-yl)methyl)piperidin-1-yl)-1-oxoisoindolin-2-yl)piperidine-2,6-dione], at SMARCA4, the DC50 was less than 0.1 µM and the Dmax is less than 50%. For the same compound, on SMARCA2, the DC50 is less than 0.1 µM and the Dmax is more than 75%.
As to `C[C@@H]1CN(CC2CCN(c3ccc4c(c3)C(=O)N([C@H]3CCC(=O)NC3=O)C4)CC2)C[C@H](C)N1C(=O)N1CCN2c3cc(-c4cc(F)cc(F)c4O)nnc3NC[C@H]2C1` [Example 17, (S)-3-(6-(4-(((3S,5R)-4-((S)-2-(3,5-difluoro-2-hydroxyphenyl)-6,6a,7,8,9,10-hexahydro-5H-pyrazino[1′,2′:4,5]pyrazino[2,3-c]pyridazine-8-carbonyl)-3,5-dimethylpiperazin-1-yl)methyl)piperidin-1-yl)-1-oxoisoindolin-2-yl)piperidine-2,6-dione], at SMARCA4, the DC50 was less than 0.1 µM and the Dmax is 50 to 75%. Besides, at SMARCA2, the DC50 is less than 0.1 µM and the Dmax is more than 75%.
On SMARCA4, `CCC12CNc3nnc(-c4cccc(Cl)c4O)cc3N1CCN(C(=O)C1(F)CCN(CC3CCN(c4ccc5c(c4)C(=O)N([C@H]4CCC(=O)NC4=O)C5)CC3)CC1)C2` (single isomer, unassigned) [Example 106] registered a DC50 of less than 0.1 µM and a Dmax of more than 75%. Further, at SMARCA2, the DC50 is less than 0.1 µM and the Dmax is more than 75%.
Turning to `O=C1CCC(N2Cc3ccc(N4CCC(CN5C[C@@H]6[C@H](C5)[C@H]6CN5CCN6c7cc(-c8cc(F)cc(F)c8O)nnc7NC[C@H]6C5)C(F)(F)C4)cc3C2=O)C(=O)N1` (single isomer, unassigned) [Example 41], at SMARCA4, the DC50 was less than 0.1 µM and the “SMARCA4 DMax %” value was “B (B=50%<Dmax≤75%)”. Moreover, on SMARCA2, the “SMARCA2 DMax %” value is on record as “A (A=Dmax>75%)” and the DC50 was less than 0.1 µM.

(Values after patent publication US20230365576A1, “BRM Targeting Compounds And Associated Methods Of Use” (Prelude Therapeutics Incorporated, priority 2022, published 2023).)
